Reference: US20060069132A1, “Azolecarboxamide herbicides” (priority 2004, published 2006)
Where two headings read alike, the source gives them in different places.

Experiments:
[1] = system: wheat; experiment: Test B postemergence herbicide test; format: in vivo, Triticum aestivum; conditions: Triticum aestivum, post-emergence, 336 h, postemergence, visual rating, scale 0 (no effect) to 100 (complete control), read-out: Wheat plant response rating
Procedure, shortened: (§1)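 Each value is a visual 0–100 response rating taken against controls 13 to 15 days after treatment in the greenhouse. Plants received formulated chemical postemergence at the 1- to 4-leaf stage or, in flooded paddy, at the 2-leaf stage.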

[2] = system: blackgrass; experiment: Test B postemergence herbicide test; format: in vivo, Alopecurus myosuroides; conditions: Alopecurus myosuroides, post-emergence, 336 h, postemergence, visual rating, scale 0 (no effect) to 100 (complete control), read-out: Blackgrass plant response rating
Procedure, shortened: as §1

[3] = system: small flower umbrella sedge; experiment: Test B flooded paddy test; format: in vivo, Cyperus difformis; conditions: Cyperus difformis, 336 h, 1000 g ai/ha, visual rating, scale 0 to 100 (0 no effect, 100 complete control), 13 to 15 days, read-out: Sedge, Umbrella plant response rating
Procedure, shortened: as §1

[4] = system: large crabgrass; experiment: Test B pre-/postemergence herbicide test; format: in vivo, Digitaria sanguinalis; conditions: Digitaria sanguinalis; for pest or weed control at 125 g/ha: 125 g ai/ha; for pest or weed control at 500 g/ha: 500 g ai/ha
Procedure, shortened: (§2)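 Test chemicals in a non-phytotoxic solvent mixture with surfactant were applied preemergence to seeded species and postemergence to plants 2-18 cm tall (1- to 4-leaf stage); rice and barnyardgrass were also tested in a flooded paddy at the 2-leaf stage. Visual rating versus controls after 13-15 days in greenhouse, scale 0 (no effect) to 100 (complete control).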

[5] = system: Surinam grass; experiment: Test B pre-/postemergence herbicide test; format: in vivo, Urochloa decumbens; conditions: Urochloa decumbens; for pest or weed control at 125 g/ha: 125 g ai/ha; for pest or weed control at 500 g/ha: 500 g ai/ha
Procedure, shortened: as §2

[6] = system: lambsquarters; experiment: Test B pre-/postemergence herbicide test; format: in vivo, Chenopodium album; conditions: Chenopodium album, 336 h; for pest or weed control at 125 g/ha: 125 g ai/ha; for pest or weed control at 500 g/ha: 500 g ai/ha
Procedure, shortened: as §2

[7] = system: barnyardgrass; experiment: Test B flooded paddy test; format: in vivo, Echinochloa crus-galli; conditions: Echinochloa crus-galli, 336 h, 1000 g ai/ha, visual rating, scale 0 to 100 (0 no effect, 100 complete control), 13 to 15 days, read-out: Barnyardgrass plant response rating
Procedure, shortened: as §1

[8] = system: wild oat; experiment: Test B postemergence herbicide test; format: in vivo, Avena fatua; conditions: Avena fatua, post-emergence, 336 h, postemergence, visual rating, scale 0 (no effect) to 100 (complete control), read-out: Oat, Wild plant response rating
Procedure, shortened: as §1

[9] = system: rice; experiment: Test B flooded paddy test; format: in vivo, Oryza sativa; conditions: Oryza sativa, 336 h, 1000 g ai/ha, visual rating, scale 0 to 100 (0 no effect, 100 complete control), 13 to 15 days, read-out: Rice plant response rating
Procedure, shortened: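 Paddy species grown to the 2-leaf stage under flooding; blackgrass sprayed postemergence at 2–18 cm (1- to 4-leaf stage). Plants kept in a greenhouse for 13 to 15 days, then visually rated against controls on 0 (no effect) to 100 (complete control).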

[10] = system: morningglory; experiment: Test B pre-/postemergence herbicide test; format: in vivo, Ipomoea coccinea; conditions: Ipomoea, 336 h, visual rating; for pest or weed control at 500 g/ha: 500 g ai/ha
Procedure, shortened: (§3)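 Evaluation is visual, comparing treated with control plants on a scale where 0 means no effect and 100 means full control. Treatments were preemergence, or postemergence on seedlings 2–18 cm tall, and held 13–15 days in the greenhouse.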

[11] = system: cocklebur; experiment: Test B pre-/postemergence herbicide test; format: in vivo, Xanthium strumarium; conditions: Xanthium strumarium; for pest or weed control at 125 g/ha: 125 g ai/ha; for pest or weed control at 500 g/ha: 500 g ai/ha
Procedure, shortened: as §3

[12] = system: velvetleaf; experiment: Test B pre-/postemergence herbicide test; format: in vivo, Abutilon theophrasti; conditions: Abutilon theophrasti, 336 h; for pest or weed control at 125 g/ha: 125 g ai/ha; for pest or weed control at 500 g/ha: 500 g ai/ha
Procedure, shortened: as §2

[13] = system: corn; experiment: Test B pre-/postemergence herbicide test; format: in vivo, Zea mays; conditions: Zea mays; for plant injury at 125 g/ha: 125 g ai/ha
Procedure, shortened: as §2

[14] = system: barnyardgrass; experiment: Test B pre-/postemergence herbicide test; format: in vivo, Echinochloa crus-galli; conditions: Echinochloa crus-galli; for pest or weed control at 125 g/ha: 125 g ai/ha; for pest or weed control at 500 g/ha: 500 g ai/ha
Procedure, shortened: as §3

[15] = system: ducksalad; experiment: Test B flooded paddy test; format: in vivo, Heteranthera limosa; conditions: Heteranthera limosa, 336 h, 1000 g ai/ha, visual rating, scale 0 to 100 (0 no effect, 100 complete control), 13 to 15 days, read-out: Ducksalad plant response rating
Procedure, shortened: as §1

[16] = post-emergence, postemergence, visual rating, scale 0 (no effect) to 100 (complete control), read-out: Crabgrass, Large plant response rating
[17] = post-emergence, postemergence, visual rating, scale 0 (no effect) to 100 (complete control), read-out: Surinam Grass plant response rating
[18] = post-emergence, postemergence, visual rating, scale 0 (no effect) to 100 (complete control), read-out: Lambsquarters plant response rating
[19] = post-emergence, postemergence, visual rating, scale 0 (no effect) to 100 (complete control), read-out: Cocklebur plant response rating
[20] = post-emergence, postemergence, visual rating, scale 0 (no effect) to 100 (complete control), read-out: Velvetleaf plant response rating
[21] = post-emergence, postemergence, visual rating, scale 0 (no effect) to 100 (complete control), read-out: Barnyardgrass plant response rating

CCc1nn(C(C)(C)C)cc1C(=O)Nc1cc(C(=O)N(C)C)ccc1F [Compound 222, N-[5-[(dimethylamino)carbonyl]-2-fluorophenyl]-1-(1,1-dimethylethyl)-3-ethyl-1H-pyrazole-4-carboxamide]
plant injury at 125 g/ha ([1]; 125 g ai/ha): 0% | plant injury at 500 g/ha ([1]; 500 g ai/ha): 20% | pest or weed control at 125 g/ha ([2]; 125 g ai/ha): 0% | pest or weed control at 500 g/ha ([2]; 500 g ai/ha): 20% | pest or weed control at 1000 g/ha [3]: 70% | pest or weed control at 125 g/ha [4, 16]: 10% | pest or weed control at 500 g/ha [4, 16]: 20% | pest or weed control at 125 g/ha ([4]; pre-emergence, 0 = no effect, 100 = complete control, read-out: Crabgrass, Large plant response rating (0 to 100 scale)): 90% | pest or weed control at 500 g/ha ([4]; pre-emergence, visual rating, 0 = no effect, 100 = complete control, read-out: Plant response rating, Crabgrass, Large): 100% | pest or weed control at 125 g/ha [5, 17]: 10% | pest or weed control at 500 g/ha [5, 17]: 30% | pest or weed control at 125 g/ha ([5]; pre-emergence, 0 = no effect, 100 = complete control, read-out: Surinam Grass plant response rating (0 to 100 scale)): 90% | pest or weed control at 500 g/ha ([5]; pre-emergence, visual rating, 0 = no effect, 100 = complete control, read-out: Plant response rating, Surinam Grass): 100% | pest or weed control at 125 g/ha [6, 18]: 50% | pest or weed control at 500 g/ha [6, 18]: 70% | pest or weed control at 125 g/ha ([6]; pre-emergence, 0 = no effect, 100 = complete control, read-out: Lambsquarters plant response rating (0 to 100 scale)): 100% | pest or weed control at 500 g/ha ([6]; pre-emergence, visual rating, 0 = no effect, 100 = complete control, read-out: Plant response rating, Lambsquarters): 100% | pest or weed control at 1000 g/ha [7]: 90% | pest or weed control at 125 g/ha ([8]; 125 g ai/ha): 0% | pest or weed control at 500 g/ha ([8]; 500 g ai/ha): 20% | plant injury at 1000 g/ha [9]: 90% | pest or weed control at 125 g/ha ([10]; post-emergence, postemergence, 125 g ai/ha, scale 0 (no effect) to 100 (complete control), read-out: Morningglory plant response rating): 40% | pest or weed control at 500 g/ha ([10]; post-emergence, postemergence, scale 0 (no effect) to 100 (complete control), read-out: Morningglory plant response rating): 80% | pest or weed control at 500 g/ha ([10]; pre-emergence, 0 = no effect, 100 = complete control, read-out: Plant response rating, Morningglory): 100% | pest or weed control at 125 g/ha [11, 19]: 20% | pest or weed control at 500 g/ha [11, 19]: 60% | pest or weed control at 125 g/ha ([11]; pre-emergence, 0 = no effect, 100 = complete control, read-out: Cocklebur plant response rating (0 to 100 scale)): 30% | pest or weed control at 500 g/ha ([11]; pre-emergence, visual rating, 0 = no effect, 100 = complete control, read-out: Plant response rating, Cocklebur): 80% | pest or weed control at 125 g/ha [12, 20]: 50% | pest or weed control at 500 g/ha [12, 20]: 60% | pest or weed control at 125 g/ha ([12]; pre-emergence, 0 = no effect, 100 = complete control, read-out: Velvetleaf plant response rating (0 to 100 scale)): 100% | pest or weed control at 500 g/ha ([12]; pre-emergence, visual rating, 0 = no effect, 100 = complete control, read-out: Plant response rating, Velvetleaf): 100% | plant injury at 125 g/ha ([13]; post-emergence, postemergence, visual rating, scale 0 (no effect) to 100 (complete control), read-out: Corn plant response rating): 0% | plant injury at 500 g/ha ([13]; post-emergence, postemergence, 500 g ai/ha, visual rating, scale 0 (no effect) to 100 (complete control), read-out: Corn plant response rating): 20% | plant injury at 125 g/ha ([13]; pre-emergence, 0 = no effect, 100 = complete control, read-out: Corn plant response rating (0 to 100 scale)): 60% | Corn plant response rating (crop injury, 0 = no effect, 100 = complete kill) at 500 g/ha ([13]; pre-emergence, 500 g ai/ha, visual rating, 0 = no effect, 100 = complete control): 90% | pest or weed control at 125 g/ha [14, 21]: 10% | pest or weed control at 500 g/ha [14, 21]: 20% | pest or weed control at 125 g/ha ([14]; pre-emergence, 0 = no effect, 100 = complete control, read-out: Barnyardgrass plant response rating (0 to 100 scale)): 90% | pest or weed control at 500 g/ha ([14]; pre-emergence, visual rating, 0 = no effect, 100 = complete control, read-out: Plant response rating, Barnyardgrass): 100% | pest or weed control at 1000 g/ha [15]: 80%
